The target of one test is FGFR2 (Homo sapiens, UniProt P21802). The test can be described thus: FGFR wild type enzyme assay (HTRF KinEASE-TK), FGFR2. The settings on record: Enz FGFR2 (nM).
Chain of FGFR2 (P21802 399-821 limits assumed): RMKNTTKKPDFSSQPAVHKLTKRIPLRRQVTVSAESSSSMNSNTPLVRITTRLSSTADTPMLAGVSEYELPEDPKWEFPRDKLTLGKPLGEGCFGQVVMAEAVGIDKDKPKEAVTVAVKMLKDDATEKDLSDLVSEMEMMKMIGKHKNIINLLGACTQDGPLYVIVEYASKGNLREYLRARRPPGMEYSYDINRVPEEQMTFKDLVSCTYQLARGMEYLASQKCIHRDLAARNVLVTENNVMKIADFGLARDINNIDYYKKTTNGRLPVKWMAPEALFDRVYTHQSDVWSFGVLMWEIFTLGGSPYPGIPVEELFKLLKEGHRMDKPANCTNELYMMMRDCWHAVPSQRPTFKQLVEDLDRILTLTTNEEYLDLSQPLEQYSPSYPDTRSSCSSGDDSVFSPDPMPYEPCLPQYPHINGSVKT
`CN1CCC[C@H]1C(=O)N1CCC(n2cc(-c3cc(Sc4ccccn4)c4c(C#N)cnn4c3)cn2)CC1` [Example 94, 6-[1-[1-[(2S)-1-methylpyrrolidine-2-carbonyl]-4-piperidyl]pyrazol-4-yl]-4-(2-pyridylsulfanyl) pyrazolo[1,5-a]pyridine-3-carbonitrile] had an IC50 of 2 nM.
Regarding `Cc1ncccc1Sc1cc(-c2cnn([C@H]3CCCNC3)c2)cn2ncc(C#N)c12` [Example 81, 4-[(2-methyl-3-pyridyl)sulfanyl]-6-[1-[(3S)-3-piperidyl]pyrazol-4-yl]pyrazolo[1,5-a]pyridine-3-carbonitrile], the IC50 came to 31 nM.
Same read-out and setting: as for `N#Cc1cnn2cc(-c3cnn([C@H]4CCCNC4)c3)cc(Sc3ncccc3C(F)(F)F)c12` [Example 67], the figure is 4 nM; as for `Cc1c(-c2cc(Sc3ccccc3F)c3c(C#N)cnn3c2)cnn1[C@H]1CCCNC1` [Example 134, 4-(2-fluorophenyl)sulfanyl-6-[5-methyl-1-[(3S)-3-piperidyl]pyrazol-4-yl]pyrazolo[1,5-a]pyridine-3-carbonitrile], 1 nM.
The same measure, in the same setting: as for `Cc1cc(F)cc(Sc2cc(-c3cnn([C@H]4CCCNC4)c3)cn3ncc(C#N)c23)n1` [Example 78, 4-[(4-fluoro-6-methyl-2-pyridyl)sulfanyl]-6-[1-[(3S)-3-piperidyl]pyrazol-4-yl]pyrazolo[1,5-a]pyridine-3-carbonitrile], the figure is 27 nM.

Staying with this test, now noted: Enz FGFR2 (nM), FGFR2 wild type enzyme.
Compound `Cc1c(-c2cc(Sc3ccc(F)cn3)c3c(C#N)cnn3c2)cnn1[C@H]1CCCNC1` [Example 307, (S)-4-((5-fluoropyridin-2-yl)thio)-6-(5-methyl-1-(piperidin-3-yl)-1H-pyrazol-4-yl)pyrazolo[1,5-a]pyridine-3-carbonitrile] returned an IC50 of 5 nM.
`CN[C@]1(C)CC[C@H](n2ncc(-c3cc(Sc4ncccc4F)c4c(C#N)cnn4c3)c2C)CC1` [Example 295, 4-((3-fluoropyridin-2-yl)thio)-6-(5-methyl-1-((1s,4s)-4-methyl-4-(methylamino)cylcohexyl)-1H-pyrazol-4-yl)pyrazolo[1,5-a]pyridine-3-carbonitrile]: the IC50 was found to be 1 nM.
The same measure, in the same setting: the value for `CC(=O)N1CC[C@]2(CC[C@H](n3ncc(-c4cc(Sc5ncccc5F)c5c(C#N)cnn5c4)c3C)CC2)C1` [Example 227, 6-(1-((5s,8s)-2-acetyl-2-azaspiro[4.5]decan-8-yl)-5-methyl-1H-pyrazol-4-yl)-4-((3-fluoropyridin-2-yl)thio)pyrazolo[1,5-a]pyridine-3-carbonitrile] was 1 nM.
The same measure, in the same setting: the value for `Cc1c(-c2cc(Sc3ncccc3F)c3c(C#N)cnn3c2)cnn1C1CCC(N(C)C(=O)CN(C)C)CC1` (stereo not drawn) [Example 173, N-(4-(4-(3-cyano-4-((3-fluoropyridin-2-yl)thio)pyrazolo[1,5-a]pyridin-6-yl)-5-methyl-1H-pyrazol-1-yl)cyclohexyl)-2-(dimethylamino)-N-methylacetamide] was 1 nM; that for `Cc1c(-c2cc(Sc3ccc(F)cc3C#N)c3c(C#N)cnn3c2)cnn1C1CCN(C(C)C)CC1` [Example 330, 4-((2-cyano-4-fluorophenyl)thio)-6-(1-(1-isopropylpiperidin-4-yl)-5-methyl-1H-pyrazol-4-yl)pyrazolo[1,5-a]pyridine-3-carbonitrile] was 1 nM; that for `Cc1c(-c2cc(Sc3ncccc3F)c3c(C#N)cnn3c2)cnn1[C@@H]1CCNC[C@H]1F` [Example 223] was 8 nM.
On to `Cc1c(-c2cc(Sc3ncccc3F)c3c(C#N)cnn3c2)cnn1[C@H]1CC[C@H](O)CC1` [Example 185, 4-((3-fluoropyridin-2-yl)thio)-6-(1-((1r,4r)-4-hydroxycyclohexyl)-5-methyl-1H-pyrazol-4-yl)pyrazolo[1,5-a]pyridine-3-carbonitrile], for which the IC50 came out at 1 nM.
`Cc1c(-c2cc(Sc3ccccc3C#N)c3c(C#N)cnn3c2)cnn1[C@@H]1C[C@H]2CC[C@@H](C1)N2C` [Example 265, 4-((2-cyanophenyl)thio)-6-(5-methyl-1-((1R,3s,5S)-8-methyl-8-azabicyclo[3.2.1]octan-3-yl)-1H-pyrazol-4-yl)pyrazolo[1,5-a]pyridine-3-carbonitrile] showed an IC50 of 0.4 nM.

Still in this test, the particulars now being: Enz FGFR2 (nM), FGFR2 wild type enzyme assay.
With `N#Cc1ccccc1Sc1cc(-c2ccc(N3CCCC3)nc2)cn2ncc(C#N)c12` [Example 549, 4-((2-cyanophenyl)thio)-6-(6-(pyrrolidin-1-yl)pyridin-3-yl)pyrazolo[1,5-a]pyridine-3-carbonitrile], the IC50 came out at 1 nM.
The compound `Cc1nn([C@H]2CCCNC2)cc1-c1cc(Sc2ccc(F)cc2C#N)c2c(C#N)cnn2c1` [Example 414, (S)-4-((2-cyano-4-fluorophenyl)thio)-6-(3-methyl-1-(piperidin-3-yl)-1H-pyrazol-4-yl)pyrazolo[1,5-a]pyridine-3-carbonitrile] yielded an IC50 of 7 nM.
Consider `C[C@@H](O)C(=O)N1CCC[C@H](n2cc(-c3cc(Sc4ccccc4C#N)c4c(C#N)cnn4c3)cn2)C1` [Example 590, 4-((2-cyanophenyl)thio)-6-(1-((S)-1-((R)-2-hydroxypropanoyl)piperidin-3-yl)-1H-pyrazol-4-yl)pyrazolo[1,5-a]pyridine-3-carbonitrile], for which the IC50 was determined as 0.5 nM.
The same measure, in the same setting: as for `N#Cc1ccccc1Sc1cc(-c2cnn(CC(=O)N3CCNCC3)c2)cn2ncc(C#N)c12` [Example 670, 4-((2-cyanophenyl)thio)-6-(1-(2-oxo-2-(piperazin-1-yl)ethyl)-1H-pyrazol-4-yl)pyrazolo[1,5-a]pryridine-3-carbonitrile], the figure is 1 nM; as for `CC1(C)CC[C@H](n2cc(-c3cc(Sc4ccccc4C#N)c4c(C#N)cnn4c3)cn2)CN1` [Example 593, (S)-4-((2-cyanophenyl)thio)-6-(1-(6,6-dimethylpiperidin-3-yl)-1H-pyrazol-4-yl)pyrazolo[1,5-a]pyridine-3-carbonitrile], 1 nM.
On the same count and under the same terms, as for `CN1CC[C@@H](n2cc(-c3cc(Sc4ccccc4C#N)c4c(C#N)cnn4c3)cn2)CC1=O` [Example 618, (R)-4-((2-cyanophenyl)thio)-6-(1-(1-methyl-2-oxopiperidin-4-yl)-1H-pyrazol-4-yl)pyrazolo[1,5-a]pyridine-3-carbonitrile], the figure is 0.4 nM; as for `CC(=O)N1CCN(c2ccc(-c3cc(Sc4ncccc4F)c4c(C#N)cnn4c3)cn2)CC1` [Example 555, 6-(6-(4-acetylpiperazin-1-yl)pyridin-3-yl)-4-((3-fluoropyridin-2-yl)thio)pyrazolo[1,5-a]pyridine-3-carbontrile], 1 nM.
The same measure, in the same setting: the value for `Cc1c(-c2cc(Sc3ccc(F)cc3C#N)c3c(C#N)cnn3c2)cnn1[C@H]1CCC[C@@H](O)C1` [Example 498, 4-((2-cyano-4-fluorophenyl)thio)-6-(1-((1S,3R)-3-hydroxycyclohexyl)-5-methyl-1H-pyrazol-4-yl)pyrazolo[1,5-a]pyridine-3-carbonitrile] was 2 nM; that for `Cc1c(-c2cc(Sc3ccc(F)cc3C#N)c3c(C#N)cnn3c2)cnn1[C@H]1CCC[C@H](O)C1` [Example 496, 4-((2-cyano-4-fluorophenyl)thio)-6-(1-((1S,3S)-3-hydroxycyclohexyl)-5-methyl-1H-pyrazol-4-yl)pyrazolo[1,5-a]pyridine-3-carbonitrile] was 3 nM; that for `CC(=O)N1CCC(n2cc(-c3cc(Sc4ccc(F)cc4C#N)c4c(C#N)cnn4c3)cn2)CC1` [Example 429, 6-(1-(1-acetylpiperidin-4-yl)-1H-pyrazol-4-yl)-4-((2-cyano-4-fluorophenyl)thio)pyrazolo [1,5-a]pyridine-3-carbonitrile] was 1 nM.
As for `Cc1c(-c2cc(Sc3ccc(F)cc3C#N)c3c(C#N)cnn3c2)cnn1[C@@H]1CCCC[C@H]1O` [Example 632, 4-((2-cyano-4-fluorophenyl)thio)-6-(1-((1R,2R)-2-hydroxycyclohexyl)-5-methyl-1H-pyrazol-4-yl)pyrazolo[1,5-a]pyridine-3-carbonitrile], the IC50 worked out at 32 nM.
Turning to `N#Cc1ccccc1Sc1cc(-c2c[nH]nn2)cn2ncc(C#N)c12` [Example 637, 4-((2-cyanophenyl)thio)-6-(1H-1,2,3-triazol-4-yl)pyrazolo[1,5-a]pyridine-3-carbonitrile], the IC50 turned out to be 12 nM.
As for `C#Cc1cnn2cc(-c3cnn(C4CCN(C(=O)CO)CC4)c3C)cc(Sc3ccc(F)cn3)c12` [Example 340, 1-(4-(4-(3-ethynyl-4-((5-fluoropyridin-2-yl)thio)pyrazolo[1,5-a]pyridin-6-yl)-5-methyl-1H-pyrazol-1-yl)piperidin-1-yl)-2-hydroxyethan-1-one], the IC50 stood at 7.5 nM.
`Cc1c(-c2cc(Sc3ccc(F)cc3C#N)c3c(C#N)cnn3c2)cnn1CC[C@@H](O)CO` [Example 676, (R)-4-((2-cyano-4-fluorophenyl)thio)-6-(1-(3,4-dihydroxybutyl)-5-methyl-1H-pyrazol-4-yl)pyrazolo[1,5-a]pyridine-3-carbonitrile] yielded an IC50 of 3 nM.
On the same count and under the same terms, as for `CN=S1(=O)CCC(n2cc(-c3cc(Sc4ccc(F)cc4C#N)c4c(C#N)cnn4c3)cn2)CC1` (stereo not drawn) [Example 658, 4-((2-cyano-4-fluorophenyl)thio)-6-(1-(1-(methylimino)-1-oxidohexahydro-1l6-thiopyran-4-yl)-1H-pyrazol-4-yl)pyrazolo[1,5-a]pyridine-3-carbonitrile], the figure is 1.5 nM; as for `CC(=O)N1CC[C@H](n2ncc(-c3cc(Sc4ccc(F)cc4C#N)c4c(C#N)cnn4c3)c2C)C[C@@H]1C` [Example 411, 6-(1-((2S,4S)-1-acetyl-2-methylpiperidin-4-yl)-5-methyl-1H-pyrazol-4-yl)-4-((2-cyano-4-fluorophenyl)thio)pyrazolo [1,5-a]pyridine-3-carbonitrile], 2 nM.

The same test, now with this note: read-out: Enz FGFR2; FGFR2 wild type enzyme assay.
For the compound `CC(=O)O[C@H]1CC[C@H](n2ncc(-c3cc(Sc4ccc(F)cc4C#N)c4c(C#N)cnn4c3)c2C)CC1` [Example 602, (1r,4r)-4-(4-(3-cyano-4-((2-cyano-4-fluorophenyl)thhio)pyrazolo [1,5-a]pyridin-6-yl)-5-methyl-1H-pyrazol-1-yl)cyclohexyl acetate], the IC50 stood at 2 nM.

Values taken from patent publication US20240270741A1 (Cogent Biosciences, Inc., priority 2023, published 2024).
